Earlier results, collected in patent US20110117175A1, “SWEET ANALGESIC FOR USE IN MEDICAL PROCEDURES OR TREATMENTS” (priority 2009, published 2011).

What was measured:
[1] = tested on: patients older than infants
[2] = minimal amount of sugar used
[3] = 1 to 2 drops on tongue or pacifier

blood glucose levels [2]: no increase
Compound: OC[C@H]1O[C@@](CO)(O[C@H]2O[C@H](CO)[C@@H](O)[C@H](O)[C@H]2O)[C@@H](O)[C@@H]1O [sucrose]
use as an analgesic ([1]; adult patients (studies of adult woman)): ineffective
pain relief ([1]; patients older than infants): unsuccessful
duration of infant or neonate response (infant or neonate; [3]): up to 10 minutes
time to infant or neonate response (infant or neonate; [3]): up to 10 seconds
pain response (infant or neonate; infant or neonate, given prior to a painful procedure): decreases the pain response
